Laboratory results published in patent US10131652B2, “Pyrimidinyloxy benzene derivatives as herbicides” (E. I. DU PONT DE NEMOURS AND COMPANY, priority 2014, dated 2018).
Read-outs that look alike come from different tables or passages of the source.

How the values were obtained:
Type in all cases: in vivo
[1] = test system: wheat (Triticum aestivum); test: Test B pre-/postemergence plant response; conditions: Triticum aestivum, post-emergence, 240 h, read-out: Plant response rating, Wheat; for plant injury at 125 g/ha: 125 g ai/ha, postemergence, 0 to 100 scale, 0 no effect, 100 complete control; for plant injury at 31 g/ha: Postemergence, 31 g ai/ha, 0 to 100 scale (0 no effect, 100 complete control)
Summary of the method: (§1)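 Visual injury scores on a 0–100 scale (100 = complete control) relative to untreated plants, taken about 10 days post-treatment in greenhouse. Treatments were a directed preemergence soil spray and a postemergence spray at one- to two-leaf stage, using surfactant-containing solvent formulation.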

[2] = test system: Italian ryegrass (Lolium multiflorum); test: Test B pre-/postemergence plant response
Summary of the method: as §1

[3] = test system: ragweed (common ragweed, Ambrosia elatior); test: Test B pre-/postemergence plant response
Summary of the method: as §1

[4] = test system: barnyardgrass (Echinochloa crus-galli); test: Test B pre-/postemergence plant response; conditions: for pest or weed control at 125 g/ha / pest or weed control at 31 g/ha: Echinochloa crus-galli, 240 h, read-out: Plant response rating, Barnyardgrass; for pest or weed control at 125 g/ha / Barnyardgrass plant response rating: 125 g ai/ha; for pest or weed control at 125 g/ha: postemergence, 0 to 100 scale, 0 no effect, 100 complete control; for pest or weed control at 31 g/ha: 31 g ai/ha
Summary of the method: as §1

corn (Zea mays) = test: Test B pre-/postemergence plant response; conditions: Zea mays, post-emergence, 240 h; for Corn plant response rating (crop injury, 0 = no effect, 100 = complete kill) at 125 g/ha: 125 g ai/ha, postemergence, 0 to 100 scale, 100 complete control; for Corn plant response rating (crop injury, 0 = no effect, 100 = complete kill) at 31 g/ha: Postemergence, 31 g ai/ha, 0 to 100 scale (0 no effect, 100 complete control)
Summary of the method: as §1

[5] = test system: pigweed (Amaranthus retroflexus); test: Test B pre-/postemergence plant response; conditions: for pest or weed control at 125 g/ha / pest or weed control at 31 g/ha: Amaranthus retroflexus, 240 h, read-out: Plant response rating, Pigweed; for pest or weed control at 125 g/ha / Pigweed plant response rating: 125 g ai/ha; for pest or weed control at 125 g/ha: postemergence, 0 to 100 scale, 0 no effect, 100 complete control; for pest or weed control at 31 g/ha: 31 g ai/ha
Summary of the method: as §1

[6] = test system: giant foxtail (Setaria faberii); test: Test B pre-/postemergence plant response; conditions: for Foxtail, Giant plant response rating / pest or weed control at 125 g/ha: 125 g ai/ha; for pest or weed control at 125 g/ha / pest or weed control at 31 g/ha: Setaria faberi, 240 h, read-out: Plant response rating, Foxtail, Giant; for pest or weed control at 125 g/ha: postemergence, 0 to 100 scale, 0 no effect, 100 complete control; for pest or weed control at 31 g/ha: 31 g ai/ha
Summary of the method: as §1

kochia (Kochia scoparia) [7] = test: Test B pre-/postemergence plant response
Summary of the method: as §1

[8] = test system: galium (catchweed bedstraw, Galium aparine); test: Test B postemergence plant response
Summary of the method: (§2)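 Visual injury ratings, 0 = no effect to 100 = complete control, versus untreated controls approximately 10 days after postemergence spraying in greenhouse. Plants were at one- to two-leaf stage, 2 to 10 cm tall, in loam soil/sand blend; a dash denotes no result.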

[9] = test system: blackgrass (Alopecurus myosuroides); test: Test B postemergence plant response
Summary of the method: as §2

wild oat (Avena fatua) = test: Test D postemergence plant response; conditions: Avena fatua, post-emergence; for pest or weed control at 31 g/ha: 31 g ai/ha, scale 0 to 100 (0 no effect, 100 complete control), read-out: Oat, Wild plant response rating; for pest or weed control at 62 g/ha: 62 g ai/ha; for pest or weed control at 62 g/ha / pest or weed control at 125 g/ha: scale 0 to 100, 0 no effect, 100 complete control, read-out: Plant response rating, Oat, Wild; for pest or weed control at 125 g/ha: 125 g ai/ha
Summary of the method: (§3)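 Visual 0–100 rating vs controls (0 = no effect, 100 = complete control), scored 13–15 d after postemergence spray. Plants 1- to 4-leaf stage (2–18 cm), potted in peat/vermiculite mix, kept in greenhouse.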

[10] = test system: chickweed (common chickweed, Stellaria media); test: Test D postemergence plant response; conditions: Stellaria media, post-emergence; for pest or weed control at 16 g/ha: 16 g ai/ha; for pest or weed control at 16 g/ha / pest or weed control at 31 g/ha: scale 0 to 100 (0 no effect, 100 complete control), read-out: Chickweed plant response rating; for pest or weed control at 31 g/ha: 31 g ai/ha; for pest or weed control at 62 g/ha: 62 g ai/ha; for pest or weed control at 62 g/ha / pest or weed control at 125 g/ha: scale 0 to 100, 0 no effect, 100 complete control, read-out: Plant response rating, Chickweed; for pest or weed control at 125 g/ha: 125 g ai/ha
Summary of the method: as §3

kochia (Kochia scoparia) [11] = test: Test D postemergence plant response; conditions: Bassia scoparia, post-emergence; for pest or weed control at 31 g/ha: 31 g ai/ha, scale 0 to 100 (0 no effect, 100 complete control), read-out: Kochia plant response rating; for pest or weed control at 62 g/ha: 62 g ai/ha; for pest or weed control at 62 g/ha / pest or weed control at 125 g/ha: scale 0 to 100, 0 no effect, 100 complete control, read-out: Plant response rating, Kochia; for pest or weed control at 125 g/ha: 125 g ai/ha
Summary of the method: as §3

rice (Oryza sativa) = test: Test C flooded paddy test plant response; conditions: Oryza sativa; Flood, 250 g ai/ha; scale of 0 to 100 where 0 is no effect and 100 is complete control; 13 to 15 days; read-out: Rice plant response rating
Summary of the method: (§4)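 Flooded-pot format, 3 cm water over soil maintained for the test duration; test compounds dispensed into the water at the 2-leaf stage. Greenhouse holding 13 to 15 days. Plants evaluated visually relative to untreated controls, 0 meaning no effect and 100 complete control.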

[12] = test system: ducksalad (Heteranthera limosa); test: Test C flooded paddy test plant response; conditions: Heteranthera limosa; Flood, 250 g ai/ha; scale of 0 to 100 where 0 is no effect and 100 is complete control; 13 to 15 days; read-out: Ducksalad plant response rating
Summary of the method: as §4

[13] = test system: small-flower umbrella sedge (Cyperus difformis); test: Test C flooded paddy test plant response; conditions: Cyperus difformis; Flood, 250 g ai/ha; scale of 0 to 100 where 0 is no effect and 100 is complete control; 13 to 15 days; read-out: Sedge, Umbrella plant response rating
Summary of the method: as §4

[14] = test system: barnyardgrass (Echinochloa crus-galli); test: Test C flooded paddy test plant response; conditions: Echinochloa crus-galli; Flood, 250 g ai/ha; scale of 0 to 100 where 0 is no effect and 100 is complete control; 13 to 15 days; read-out: Barnyardgrass plant response rating
Summary of the method: as §4

[15] = 31 g ai/ha, Preemergence, 0 to 100 scale where 0 is no effect and 100 is complete control
[16] = 125 g ai/ha, postemergence, 0 to 100 scale, 0 no effect, 100 complete control
[17] = Postemergence, 31 g ai/ha, 0 to 100 scale (0 no effect, 100 complete control)
[18] = Preemergence, 125 g ai/ha, 0 to 100 scale (0 no effect, 100 complete control)
[19] = post-emergence, Postemergence, 0 to 100 scale (0 no effect, 100 complete control)
[20] = pre-emergence, Preemergence, 0 to 100 scale where 0 is no effect and 100 is complete control
[21] = Preemergence, 0 to 100 scale (0 no effect, 100 complete control)

Compound: Fc1cccc(Oc2ncc(Cl)cn2)c1-c1cc(C(F)F)no1 [Compound 144, 5-chloro-2-[2-[3-(difluoromethyl)-5-isoxazolyl]-3-fluorophenoxy]pyrimidine]
- plant injury at 125 g/ha [1]: 90%
- plant injury at 31 g/ha [1]: 30%
- Plant response rating, Ryegrass, Italian [2, 15]: 0
- Plant response rating, Ryegrass, Italian [2, 16]: 100
- Plant response rating, Ryegrass, Italian [2, 17]: 20
- Ryegrass, Italian plant response rating [2, 18]: 90
- Plant response rating, Ragweed [3, 15]: 0
- Plant response rating, Ragweed [3, 16]: 60
- Plant response rating, Ragweed [3, 17]: 20
- Ragweed plant response rating [3, 18]: 50
- pest or weed control at 125 g/ha ([4]; post-emergence): 100%
- pest or weed control at 31 g/ha [4, 19]: 30%
- pest or weed control at 31 g/ha [4, 20]: 80%
- Barnyardgrass plant response rating [4, 21]: 100
- Corn plant response rating (crop injury, 0 = no effect, 100 = complete kill) at 125 g/ha (corn (Zea mays)): 90%
- Corn plant response rating (crop injury, 0 = no effect, 100 = complete kill) at 31 g/ha (corn (Zea mays)): 30%
- pest or weed control at 125 g/ha ([5]; post-emergence): 100%
- pest or weed control at 31 g/ha [5, 19]: 100%
- pest or weed control at 31 g/ha [5, 20]: 100%
- Pigweed plant response rating [5, 21]: 100
- Foxtail, Giant plant response rating [6, 21]: 100
- pest or weed control at 125 g/ha ([6]; post-emergence): 100%
- pest or weed control at 31 g/ha [6, 19]: 80%
- pest or weed control at 31 g/ha [6, 20]: 100%
- Plant response rating, Kochia (kochia (Kochia scoparia) [7]; [15]): 90
- Plant response rating, Kochia (kochia (Kochia scoparia) [7]; [16]): 100
- Plant response rating, Kochia (kochia (Kochia scoparia) [7]; [17]): 100
- Kochia plant response rating (kochia (Kochia scoparia) [7]; [18]): 100
- Plant response rating, Galium [8, 16]: 100
- Plant response rating, Galium [8, 17]: 100
- Plant response rating, Blackgrass [9, 16]: 90
- Plant response rating, Blackgrass [9, 17]: 80
- pest or weed control at 31 g/ha (wild oat (Avena fatua)): 0%
- pest or weed control at 62 g/ha (wild oat (Avena fatua)): 5%
- pest or weed control at 125 g/ha (wild oat (Avena fatua)): 10%
- pest or weed control at 16 g/ha [10]: 70%
- pest or weed control at 31 g/ha [10]: 80%
- pest or weed control at 62 g/ha [10]: 95%
- pest or weed control at 125 g/ha [10]: 95%
- pest or weed control at 31 g/ha (kochia (Kochia scoparia) [11]): 100%
- pest or weed control at 62 g/ha (kochia (Kochia scoparia) [11]): 100%
- pest or weed control at 125 g/ha (kochia (Kochia scoparia) [11]): 100%
- plant injury at 250 g/ha (rice (Oryza sativa)): 40%
- pest or weed control at 250 g/ha [12]: 90%
- pest or weed control at 250 g/ha [13]: 85%
- pest or weed control at 250 g/ha [14]: 98%

Compound: Fc1cccc(Oc2ncc(Br)cn2)c1-c1cc(C(F)F)no1 [Compound 145, 5-bromo-2-[2-[3-(difluoromethyl)-5-isoxazolyl]-3-fluorophenoxy]pyrimidine]
- plant injury at 125 g/ha [1]: 70%
- plant injury at 31 g/ha [1]: 20%
- Plant response rating, Ryegrass, Italian [2, 15]: 0
- Plant response rating, Ryegrass, Italian [2, 16]: 80
- Plant response rating, Ryegrass, Italian [2, 17]: 20
- Ryegrass, Italian plant response rating [2, 18]: 40
- Plant response rating, Ragweed [3, 15]: 0
- Plant response rating, Ragweed [3, 16]: 50
- Plant response rating, Ragweed [3, 17]: 20
- Ragweed plant response rating [3, 18]: 20
- pest or weed control at 125 g/ha ([4]; post-emergence): 100%
- pest or weed control at 31 g/ha [4, 19]: 40%
- pest or weed control at 31 g/ha [4, 20]: 70%
- Barnyardgrass plant response rating [4, 21]: 100
- Corn plant response rating (crop injury, 0 = no effect, 100 = complete kill) at 125 g/ha (corn (Zea mays)): 70%
- Corn plant response rating (crop injury, 0 = no effect, 100 = complete kill) at 31 g/ha (corn (Zea mays)): 30%
- pest or weed control at 125 g/ha ([5]; post-emergence): 100%
- pest or weed control at 31 g/ha [5, 19]: 100%
- pest or weed control at 31 g/ha [5, 20]: 100%
- Pigweed plant response rating [5, 21]: 100
- Foxtail, Giant plant response rating [6, 21]: 100
- pest or weed control at 125 g/ha ([6]; post-emergence): 90%
- pest or weed control at 31 g/ha [6, 19]: 70%
- pest or weed control at 31 g/ha [6, 20]: 90%
- Plant response rating, Kochia (kochia (Kochia scoparia) [7]; [15]): 90
- Plant response rating, Kochia (kochia (Kochia scoparia) [7]; [16]): 100
- Plant response rating, Kochia (kochia (Kochia scoparia) [7]; [17]): 100
- Kochia plant response rating (kochia (Kochia scoparia) [7]; [18]): 100
- Plant response rating, Galium [8, 16]: 100
- Plant response rating, Galium [8, 17]: 100
- Plant response rating, Blackgrass [9, 16]: 90
- Plant response rating, Blackgrass [9, 17]: 70
- pest or weed control at 31 g/ha (wild oat (Avena fatua)): 10%
- pest or weed control at 62 g/ha (wild oat (Avena fatua)): 15%
- pest or weed control at 125 g/ha (wild oat (Avena fatua)): 15%
- pest or weed control at 16 g/ha [10]: 70%
- pest or weed control at 31 g/ha [10]: 80%
- pest or weed control at 62 g/ha [10]: 95%
- pest or weed control at 125 g/ha [10]: 100%
- pest or weed control at 31 g/ha (kochia (Kochia scoparia) [11]): 100%
- pest or weed control at 62 g/ha (kochia (Kochia scoparia) [11]): 100%
- pest or weed control at 125 g/ha (kochia (Kochia scoparia) [11]): 100%
- plant injury at 250 g/ha (rice (Oryza sativa)): 35%
- pest or weed control at 250 g/ha [12]: 90%
- pest or weed control at 250 g/ha [13]: 95%
- pest or weed control at 250 g/ha [14]: 45%
